Measured values: PMC11671014 (PLOS Pathogens, 2024)
“And” between values parts separate entries of the source, which are not always exact repeats. Identical values can stand only once. Like-named read-outs stand apart in the source and are kept apart here.

Tests used:
[1] = Blood exposure in the P. falciparum infected SCID mouse model; format: in vivo, NODscidIL2Rγ^null mice engrafted with human RBCs; settings: for Cmax / Tmax / AUC(0-t): female, mouse, whole blood, po
Experimental: The model using P. falciparum Pf3D7^0087/N9 in NODscidIL2Rγ^null mice engrafted with human RBCs was adapted from a previously described procedure. Female NODscidIL2Rγ^null mice were purchased from Charles River (Germany). Briefly, two engrafted mice/dosing group (females, 20–22 g) were infected intravenously with 2 x 10^7 P. falciparum (Pf3D7^0087/N9) on day 0. The antimalarial efficacy was assessed following administration (p.o.) of 100 or 200 mg/kg of compound or of 4 daily doses of 50 mg/kg, initiated on day 3 post-infection. The effect on blood parasitemia was measured by microscopic analysis of Giemsa-stained blood smears (on days 3, 4, 5, 6 and 7 post-infection). Mice were euthanized on day 7. Animal were monitored for symptoms of acute toxicity, including decreased activity, sunken flanks, ataxia and blood in faeces.
On day 3, blood samples (20 μL) were obtained at time points up to 24 h after the first administration. Protein was precipitated with acetonitrile and the remaining compound was assessed by LC-MS/MS in the selected reaction monitoring mode using HESI ionization in positive ion mode.

[2] = tested on: P. falciparum (strain 3D7A); assay: Parasite Reduction Rate (PRR) estimation; format: cell-based, Plasmodium falciparum; settings: 10 x IC50
Experimental: PRR was assessed using a standardized method. P. falciparum (strain 3D7A, MRA-151), contributed by David Walliker, was obtained through BEI Resources, NIAID, NIH. Cultures of parasites (~90% ring stage) were treated with compounds for 120 h, with daily renewal. Samples of parasites were taken at 0, 24, 48, 72, 96 and 120 h. Compounds were washed out and four independent 3-fold serial dilutions were established in 96-well plates, with fresh RBCs and culture medium. After 18 days, and again at 22 days, samples were taken to examine growth using SYBR Green I in an EnVision Multilabel Plate Reader (Perkin Elmer) and analysed using Excel and Grafit 5.0 software. The human biological samples were sourced ethically, and their research use was in accord with the terms of the informed consents under an IRB/EC approved protocol.

[3] = Rat pharmacokinetics; format: in vivo, Sprague-Dawley rats; settings: for half-life: read-out: T1/2z (converted)
Experimental: Sprague-Dawley rats (11 weeks old) were sourced from Hilltop Lab Animals, Inc (Scottdale, Pennsylvania, USA). […] Blood was collected from a jugular cannula at 0.083, 0.25, 0.5, 1, 2, 4, 8 and 24 h post i.v. dosing, and at the same times (except the 0.083-h sample) following oral administration. A portion of the blood samples were processed into plasma. Samples were precipitated with 0.5% formic acid in methanol and the supernatants were analysed by positive ion electrospray LC-MS for the administered compound. Non-compartmental pharmacokinetic parameters were calculated from individual concentration vs time profiles using Phoenix 64 WinNonlin (Version 8.1 Certara, Princeton NJ).

[4] = 1 x 100 mg/kg p.o., mice M1, M2
[5] = 1 x 200 mg/kg p.o., mice M3, M4
[6] = 4 days x 50 mg/kg p.o., after first dose, blood
[7] = 4 days x 50 mg/kg p.o., mice M1, M2
[8] = male, Sprague-Dawley, IV 1 mg/kg, plasma
[9] = male, Sprague-Dawley, PO 1 mg/kg, plasma
[10] = male, Sprague-Dawley, PO 10 mg/kg, plasma
[11] = male, Sprague-Dawley, PO 25 mg/kg, plasma
[12] = male, Sprague-Dawley, whole blood, IV 1 mg/kg, blood
[13] = male, Sprague-Dawley, whole blood, PO 1 mg/kg, blood
[14] = male, Sprague-Dawley, whole blood, PO 10 mg/kg, blood
[15] = male, Sprague-Dawley, whole blood, PO 25 mg/kg, blood

CC(C)c1nn([C@@H]2O[C@H](COS(N)(=O)=O)[C@@H](O)[C@H]2O)c2ncnc(N)c12 [ML471, ((2R,3S,4R,5R)-5-(4-amino-3-isopropyl-1H-pyrazolo[3,4-d]pyrimidin-1-yl)-3,4-dihydroxytetrahydrofuran-2-yl)methyl sulfamate]
AUC0-120h/dose (mean) ([1]; 1 x 100 mg/kg p.o., blood): 2,500 (h*ng/mL)/(mg/kg) | Cmax/dose (mean) ([1]; 1 x 100 mg/kg p.o., blood): 33.5 (ng/mL)/(mg/kg) | AUC0-120h (individual mice) [1, 4]: 260,000 h*ng/mL | AUC0-120h/dose (individual mice) [1, 4]: 2,390 (h*ng/mL)/(mg/kg) and 2,600 (h*ng/mL)/(mg/kg) | Cmax (individual mice) [1, 4]: 3,600 ng/mL | Cmax/dose (individual mice) [1, 4]: 31 (ng/mL)/(mg/kg) and 36 (ng/mL)/(mg/kg) | AUC0-120h/dose (mean) ([1]; 1 x 200 mg/kg p.o., blood): 1,070 (h*ng/mL)/(mg/kg) | Cmax/dose (mean) ([1]; 1 x 200 mg/kg p.o., blood): 18.8 (ng/mL)/(mg/kg) | AUC0-120h (individual mice) [1, 5]: 259,000 h*ng/mL | AUC0-120h/dose (individual mice) [1, 5]: 855 (h*ng/mL)/(mg/kg) and 1,290 (h*ng/mL)/(mg/kg) | Cmax (individual mice) [1, 5]: 4,180 ng/mL | Cmax/dose (individual mice) [1, 5]: 16.7 (ng/mL)/(mg/kg) and 20.9 (ng/mL)/(mg/kg) | AUC0-24h/dose (mean) [1, 6]: 422 (h*ng/mL)/(mg/kg) | Cmax/dose (mean) [1, 6]: 19.3 (ng/mL)/(mg/kg) | AUC0-24h (individual mice) [1, 7]: 22,572 h*ng/mL | AUC0-24h/dose (individual mice) [1, 7]: 451 (h*ng/mL)/(mg/kg) and 392 (h*ng/mL)/(mg/kg) | Cmax (individual mice) [1, 7]: 1,040 ng/mL | Cmax/dose (individual mice) [1, 7]: 17.8 (ng/mL)/(mg/kg) and 20.8 (ng/mL)/(mg/kg) | Tmax (individual mice) [1, 7]: 24 h | Cmax ([1]; NODscidIL2Rγ^null, 50 mg/kg, 4 days x 50 mg/kg p.o., after first dose, blood, read-out: Cmax (mean)): 964 ng/mL | Tmax ([1]; NODscidIL2Rγ^null, 50 mg/kg, 4 days x 50 mg/kg p.o., after first dose, blood, read-out: Tmax (mean)): 15 h | AUC(0-t) ([1]; NODscidIL2Rγ^null, 50 mg/kg, 4 days x 50 mg/kg p.o., mice M1, M2, read-out: AUC0-24h (individual mice)): 19.6 µg·h/mL | Cmax ([1]; NODscidIL2Rγ^null, 50 mg/kg, 4 days x 50 mg/kg p.o., mice M1, M2, read-out: Cmax (individual mice)): 888 ng/mL | Cmax ([1]; NODscidIL2Rγ^null, 100 mg/kg, 1 x 100 mg/kg p.o., blood, read-out: Cmax (mean)): 3350 ng/mL | Tmax ([1]; NODscidIL2Rγ^null, 100 mg/kg, 1 x 100 mg/kg p.o., blood, read-out: Tmax (mean)): 5 h | AUC(0-t) ([1]; NODscidIL2Rγ^null, 100 mg/kg, 1 x 100 mg/kg p.o., mice M1, M2, read-out: AUC0-120h (individual mice)): 239 µg·h/mL | Cmax ([1]; NODscidIL2Rγ^null, 100 mg/kg, 1 x 100 mg/kg p.o., mice M1, M2, read-out: Cmax (individual mice)): 3100 ng/mL | Tmax ([1]; NODscidIL2Rγ^null, 100 mg/kg, 1 x 100 mg/kg p.o., mice M1, M2, read-out: Tmax (individual mice)): 4 h | Cmax ([1]; NODscidIL2Rγ^null, 200 mg/kg, 1 x 200 mg/kg p.o., blood, read-out: Cmax (mean)): 3760 ng/mL | Tmax ([1]; NODscidIL2Rγ^null, 200 mg/kg, 1 x 200 mg/kg p.o., blood, read-out: Tmax (mean)): 4 h | AUC(0-t) ([1]; NODscidIL2Rγ^null, 200 mg/kg, 1 x 200 mg/kg p.o., mice M3, M4, read-out: AUC0-120h (individual mice)): 171 µg·h/mL | Cmax ([1]; NODscidIL2Rγ^null, 200 mg/kg, 1 x 200 mg/kg p.o., mice M3, M4, read-out: Cmax (individual mice)): 3340 ng/mL | Tmax ([1]; NODscidIL2Rγ^null, 200 mg/kg, 1 x 200 mg/kg p.o., mice M3, M4, read-out: Tmax (individual mice)): 4 h | AUC(0-t) ([1]; NODscidIL2Rγnull engrafted with human RBCs, 50 mg/kg, 4 x 50 mg/kg p.o., at 24 h after the first dose, read-out: AUC0-24h): 54 µM·h | AUC(0-t) ([1]; NODscidIL2Rγnull engrafted with human RBCs, 50 mg/kg, 4 days x 50 mg/kg p.o., after first dose, blood, read-out: AUC0-24h (mean)): 21.1 µg·h/mL | AUC(0-t) ([1]; NODscidIL2Rγnull engrafted with human RBCs, 100 mg/kg, 1 x 100 mg/kg p.o., blood, read-out: AUC0-120h (mean)): 250 µg·h/mL | AUC(0-t) ([1]; NODscidIL2Rγnull engrafted with human RBCs, 100 mg/kg, single dose 100 mg/kg p.o., read-out: AUC0-120h): 640 µM·h | AUC(0-t) ([1]; NODscidIL2Rγnull engrafted with human RBCs, 200 mg/kg, 1 x 200 mg/kg p.o., blood, read-out: AUC0-120h (mean)): 215 µg·h/mL | AUC(0-t) ([1]; NODscidIL2Rγnull engrafted with human RBCs, 200 mg/kg, single dose 200 mg/kg p.o., read-out: AUC0-120h): 550 µM·h | Lag phase [2]: 0 h | Log PRR [2]: 4.1 | PCT99.9% [2]: 32 h | Slope [2]: -0.09 | dose recovered in 0–24 h urine as parent ([3]; 0–24 h urine): 9–38 % of the dose | area under the curve ([3]; 25 mg/kg p.o., blood): 30 µM·h | blood clearance as share of liver blood flow ([3]; IV dose of 1 mg/kg): ~ 4 % of liver blood flow | Cmax [3, 8]: 1540 nM | Tmax [3, 8]: 0.08 h | clearance [3, 8]: 64 mL/min/kg | half-life [3, 8]: 2.22 h | Cmax [3, 9]: 19.1 nM | Tmax [3, 9]: 0.5 h | bioavailability ([3]; male, Sprague-Dawley, PO 1 mg/kg, plasma, read-out: %F): 27.7% | half-life [3, 9]: 8.78 h | Cmax [3, 10]: 196 nM | Tmax [3, 10]: 0.38 h | bioavailability ([3]; male, Sprague-Dawley, PO 10 mg/kg, plasma, read-out: %F): 25.2% | half-life [3, 10]: 9.15 h | Cmax [3, 11]: 393 nM | Tmax [3, 11]: 0.75 h | bioavailability ([3]; male, Sprague-Dawley, PO 25 mg/kg, plasma, read-out: %F): 16.4% | half-life [3, 11]: 3.57 h | Vd ([3]; male, Sprague-Dawley, plasma, iv, 1 mg/kg, IV 1 mg/kg, plasma, read-out: Vss): 2.79 L/kg | Vd ([3]; male, Sprague-Dawley, plasma, iv, 1 mg/kg, IV 1 mg/kg, plasma, read-out: Vz): 12.3 L/kg | blood plasma ratio at 0.083 h ([3]; male, Sprague-Dawley, whole blood and plasma, intravenous, 1 mg/kg, time 0.083 h): 0.8 | blood plasma ratio at 0.25 h ([3]; male, Sprague-Dawley, whole blood and plasma, intravenous, 1 mg/kg, time 0.25 h): 1.5 | blood plasma ratio at 0.5 h ([3]; male, Sprague-Dawley, whole blood and plasma, intravenous, 1 mg/kg, time 0.5 h): 2.1 | blood plasma ratio at 1 h ([3]; male, Sprague-Dawley, whole blood and plasma, intravenous, 1 mg/kg, time 1 h): 5.5 | blood plasma ratio at 2 h ([3]; male, Sprague-Dawley, whole blood and plasma, intravenous, 1 mg/kg, time 2 h): 17.8 | blood plasma ratio at 4 h ([3]; male, Sprague-Dawley, whole blood and plasma, intravenous, 1 mg/kg, time 4 h): 48.9 | blood plasma ratio at 8 h ([3]; male, Sprague-Dawley, whole blood and plasma, intravenous, 1 mg/kg, time 8 h): 114 | blood plasma ratio ([3]; male, Sprague-Dawley, whole blood and plasma, iv, 1 mg/kg, i.v. PK study, read-out: blood to plasma ratio at the initial sampling times): ~1 | Cmax [3, 12]: 1180 nM | Tmax [3, 12]: 0.17 h | clearance [3, 12]: 2.3 mL/min/kg | half-life [3, 12]: 36.6 h | Cmax [3, 13]: 39.3 nM | Tmax [3, 13]: 16 h | bioavailability ([3]; male, Sprague-Dawley, whole blood, PO 1 mg/kg, blood, read-out: %F): 9.29% | half-life [3, 13]: 23.2 h | Cmax [3, 14]: 261 nM | Tmax [3, 14]: 6 h | bioavailability ([3]; male, Sprague-Dawley, whole blood, PO 10 mg/kg, blood, read-out: %F): 9.56% | half-life [3, 14]: 29.5 h | Cmax [3, 15]: 669 nM | Tmax [3, 15]: 8 h | bioavailability ([3]; male, Sprague-Dawley, whole blood, PO 25 mg/kg, blood, read-out: %F): 8.72% | half-life ([3]; male, Sprague-Dawley, whole blood, PO 25 mg/kg, blood, terminal half-life, T1/2∞): 30.5 h | Vd ([3]; male, Sprague-Dawley, whole blood, iv, 1 mg/kg, IV 1 mg/kg, blood, read-out: Vss): 6.25 L/kg | Vd ([3]; male, Sprague-Dawley, whole blood, iv, 1 mg/kg, IV 1 mg/kg, blood, read-out: Vz): 6.54 L/kg | bioavailability ([3]; male, Sprague-Dawley, whole blood, oral, blood, range over doses, read-out: %F (blood), rat oral bioavailability): 8.72 to 9.56%
